Measured values taken from PMC7939385, “Disease-associated mutations in inositol 1,4,5-trisphosphate receptor subunits impair channel function” (The Journal of Biological Chemistry, 2021).

Assays:
WT rIP3R1 [1] = target: T1, WT rIP3R1 (Rattus norvegicus, UniProt C7E1V2, N602D); assay: competitive [3H]IP3 radioligand binding on immunoprecipitated receptor
T1 construct: gene Itpr1; homotetramer, ~300 kDa subunit; Methods give NM_001270596, footnote NM_001007235

WT rIP3R1 [2] = target: T2, WT rIP3R1 (Rattus norvegicus, UniProt C7E1V2); assay: as above; details: read-out: apparent EC50
T2 construct: gene Itpr1; homotetramer, ~300 kDa subunit; Methods give NM_001270596, footnote NM_001007235
Excerpt: competitive [3H]IP3 radioligand binding on immunoprecipitated receptor on WT rIP3R1 | the apparent EC50 for binding was not markedly altered under these conditions

WT mIP3R2 = target: T3, WT mIP3R2 (Mus musculus, UniProt Q9Z329); assay: [3H]IP3 binding on immunoprecipitated receptor; details: 2.5 nM [3H]IP3 with 50 uM unlabelled IP3 for nonspecific binding; pH 8, 4 °C, 1 h; labelled compound
T3 construct: gene Itpr2; homotetramer

T2 sequence (C7E1V2 1-2748): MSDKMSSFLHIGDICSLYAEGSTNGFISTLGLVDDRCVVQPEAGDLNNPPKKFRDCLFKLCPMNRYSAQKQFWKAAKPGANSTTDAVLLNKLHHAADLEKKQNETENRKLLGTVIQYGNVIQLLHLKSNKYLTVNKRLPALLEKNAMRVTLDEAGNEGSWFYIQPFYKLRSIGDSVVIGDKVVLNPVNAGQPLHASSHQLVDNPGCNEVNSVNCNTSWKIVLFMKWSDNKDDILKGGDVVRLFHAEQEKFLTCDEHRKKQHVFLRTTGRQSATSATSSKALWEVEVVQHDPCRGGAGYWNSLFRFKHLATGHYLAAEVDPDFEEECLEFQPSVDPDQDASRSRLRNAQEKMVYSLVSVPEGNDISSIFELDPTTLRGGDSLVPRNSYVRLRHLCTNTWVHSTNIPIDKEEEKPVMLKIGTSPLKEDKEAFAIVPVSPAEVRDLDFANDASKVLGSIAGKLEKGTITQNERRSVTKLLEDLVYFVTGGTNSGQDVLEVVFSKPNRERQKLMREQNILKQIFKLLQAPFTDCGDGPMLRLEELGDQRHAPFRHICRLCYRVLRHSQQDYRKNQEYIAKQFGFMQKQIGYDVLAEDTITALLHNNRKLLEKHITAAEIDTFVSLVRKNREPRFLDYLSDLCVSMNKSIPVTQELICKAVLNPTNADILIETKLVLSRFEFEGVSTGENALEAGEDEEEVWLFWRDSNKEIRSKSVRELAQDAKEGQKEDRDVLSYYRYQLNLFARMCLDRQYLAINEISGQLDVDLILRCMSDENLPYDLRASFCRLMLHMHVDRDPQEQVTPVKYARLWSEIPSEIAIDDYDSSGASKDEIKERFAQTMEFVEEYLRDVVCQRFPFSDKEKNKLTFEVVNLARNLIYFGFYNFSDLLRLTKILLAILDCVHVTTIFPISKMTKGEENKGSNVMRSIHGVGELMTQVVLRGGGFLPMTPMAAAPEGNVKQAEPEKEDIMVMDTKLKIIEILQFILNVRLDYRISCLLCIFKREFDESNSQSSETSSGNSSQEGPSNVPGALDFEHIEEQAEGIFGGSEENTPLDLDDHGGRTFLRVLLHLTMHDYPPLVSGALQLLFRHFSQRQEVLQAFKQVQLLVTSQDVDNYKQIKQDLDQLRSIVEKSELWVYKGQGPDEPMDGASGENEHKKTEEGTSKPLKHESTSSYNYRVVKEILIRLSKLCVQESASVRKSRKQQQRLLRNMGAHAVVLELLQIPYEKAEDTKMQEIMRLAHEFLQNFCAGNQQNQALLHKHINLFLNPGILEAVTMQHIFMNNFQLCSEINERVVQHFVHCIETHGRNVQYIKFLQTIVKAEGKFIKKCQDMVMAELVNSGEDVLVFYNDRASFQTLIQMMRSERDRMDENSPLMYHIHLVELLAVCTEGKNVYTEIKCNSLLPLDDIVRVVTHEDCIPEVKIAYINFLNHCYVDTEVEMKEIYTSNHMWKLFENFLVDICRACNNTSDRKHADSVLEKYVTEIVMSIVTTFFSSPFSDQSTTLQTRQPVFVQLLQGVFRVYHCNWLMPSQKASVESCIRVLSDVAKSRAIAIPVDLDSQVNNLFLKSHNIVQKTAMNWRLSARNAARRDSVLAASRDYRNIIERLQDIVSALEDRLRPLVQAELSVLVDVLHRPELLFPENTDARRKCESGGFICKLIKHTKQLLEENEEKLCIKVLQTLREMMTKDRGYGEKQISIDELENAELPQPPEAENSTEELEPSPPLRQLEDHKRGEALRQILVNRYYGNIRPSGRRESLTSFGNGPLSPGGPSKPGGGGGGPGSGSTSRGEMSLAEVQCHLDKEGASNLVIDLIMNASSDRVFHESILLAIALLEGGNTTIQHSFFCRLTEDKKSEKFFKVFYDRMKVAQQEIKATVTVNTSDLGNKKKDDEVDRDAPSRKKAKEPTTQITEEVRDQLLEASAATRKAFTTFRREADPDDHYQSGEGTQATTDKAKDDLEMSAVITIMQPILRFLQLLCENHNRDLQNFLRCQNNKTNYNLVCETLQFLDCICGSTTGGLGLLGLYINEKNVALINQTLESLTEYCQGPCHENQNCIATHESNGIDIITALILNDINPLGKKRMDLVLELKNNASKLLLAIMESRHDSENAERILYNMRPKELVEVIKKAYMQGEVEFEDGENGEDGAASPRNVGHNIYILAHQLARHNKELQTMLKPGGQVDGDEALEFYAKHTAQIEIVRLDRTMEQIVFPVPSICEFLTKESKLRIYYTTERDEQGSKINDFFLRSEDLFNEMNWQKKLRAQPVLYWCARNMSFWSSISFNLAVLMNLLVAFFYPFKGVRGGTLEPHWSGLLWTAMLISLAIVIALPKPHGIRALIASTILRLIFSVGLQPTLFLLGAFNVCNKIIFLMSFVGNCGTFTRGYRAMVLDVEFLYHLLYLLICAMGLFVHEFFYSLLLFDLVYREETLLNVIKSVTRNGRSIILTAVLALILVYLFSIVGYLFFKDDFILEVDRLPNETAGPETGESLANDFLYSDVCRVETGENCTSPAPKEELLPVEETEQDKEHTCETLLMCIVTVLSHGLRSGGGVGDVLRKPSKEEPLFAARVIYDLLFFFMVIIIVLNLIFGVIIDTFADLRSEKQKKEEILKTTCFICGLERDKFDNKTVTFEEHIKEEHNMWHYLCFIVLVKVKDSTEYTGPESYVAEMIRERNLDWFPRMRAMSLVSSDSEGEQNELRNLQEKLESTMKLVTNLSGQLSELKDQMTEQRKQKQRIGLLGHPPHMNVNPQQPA

For `O=P(O)(O)O[C@@H]1[C@H](O)[C@H](O)[C@@H](OP(=O)(O)O)[C@H](OP(=O)(O)O)[C@H]1O` [IP3], the EC50 (WT rIP3R1 [1]) was 70.2 ± 1.6 nM, the EC50 (WT rIP3R1 [2]) was 45.7 ± 5.3 nM and the “[3H]IP3 binding on immunoprecipitated receptor” value (WT mIP3R2) was “IP3 binding to mIP3R2^GS was comparable with WT mIP3R2”.
